According to patent US5334595A, “Pyrazoloquinolones as anticancer agents” (priority 1992, dated 1994):
Like-named read-outs stand apart in the source and are kept apart here.

Experiments:
[1] = tested on: P388 murine leukemia cells; test: In vitro cytotoxicity, one-hour exposure, clonogenic survival of P388 cells; type: cell-based; settings: Mus musculus, read-out: in vitro cytotoxicity IC50, 1 hr exp.; P388, 1 hr exposure
Description: (§1) In vitro cytotoxicity was assayed by determining cell survival following exposure of P388 murine leukemia cells to a range of test compound concentrations. Cytotoxicity was quantitated following either a one-hour exposure or continuous exposure of P388 cells to test compound.
(§2) A Manual of Basic Technique. […] Briefly, following drug exposure cells were plated in soft agar and incubated (37°, 5% CO2) for 7-10 days during which time viable cells form visible colonies. Cytotoxicity following continuous exposure of cells to test compound was assayed by quantitating total P388 cells on a Coultier Counter following a 48-hour co-incubation of test compound with cells. P388 cells were maintained in log phase throughout the duration of cytotoxicity assays.
(§3) The percentage of cells surviving relative to an untreated control was graphed as a function of increasing drug concentration.

human topoisomerase II = molecular target: T1, human topoisomerase II (Homo sapiens, UniProt P11388); test: Mammalian topoisomerase II inhibition assay (topo II covalently attached to DNA, relative to mAMSA); type: biochemical; settings: read-out: topo II inh. EC50
T1 construct: Topo II was purified from late log phase suspension cultures of HeLa WIS; endogenous in cells; host or cells: HeLa WIS
Text: The inhibition of human topoisomerase II (hereafter topo II) was quantitated by a procedure adapted from that described by Trask et al., EMBO J., 3, 671-676 (1984). The assay quantitates the amount of topo II covalently attached to DNA at equilibrium during a topo II reaction. This assay determines the potential of a compound to stabilize this complex, which potential is closely related to the cytotoxicity of the compound.
Topo II was purified from late log phase suspension cultures of HeLa WIS by an adaptation of the method described by Per et al., Mol. Pharmacol., 32, 17-25 (1987).
Assays (in duplicate) were assembled at 4° C. Assay mix (25 μl) was distributed in Beckman (No. 265270) 1.5 mL microtiter tubes followed by the addition of 5 μl test compound to yield the final concentrations of assay components:
The assay mix including the test compound was incubated for 20 minutes at 37° C. The reaction was terminated at 37° C. by the addition of 3 μl 10% SDS followed by the addition of 266 μl 10 mM Tris-Cl pH 7.5, 20 μg/ml BSA, 20 μg/ml calf thymus DNA, 1% SDS.
A SDS/protein precipitate was formed by the addition of 28 μl 2.5M KCl followed by chilling on ice for a minimum of 10 minutes. The precipitate was collected and washed with a Brandell cell harvester on a GFB glass fiber filter membrane as follows. The contents of the assay tube were drawn up into the harvester. The tube was then rinsed 7× with 10 mM Tris-Cl pH 7.5, 1 mM EDTA and 100 mM KCl. The precipitate was washed with 1 L of a solution of 10 mM Tris-Cl pH 7.5, 1 mMEDTA, 100 mM KCl followed by 1 L of 95% ethyl alcohol and finally 0.5 L 70% of ethyl alcohol (per 48 samples in each case). After drying, CPM was determined by liquid scintillation counting with 5 ml Biofluor (NEN Research Products) or Readisafe (Beckman Instruments Inc.) cocktail.
Preparation of test compound--A stock solution (6 mg/ml) of test compound was prepared either in 0.1N sodium hydroxide or 0.2N hydrogen chloride. This solution then was diluted 1/5 into water and serially thereafter in either 0.02N sodium hydroxide or 0.04N hydrogen chloride, respectively. The stock solution and serial dilution of the test compound was stored at -20° C. prior to testing.
Screening of test compound--As an initial screen, the test compound was tested at a final concentration of 2, 20 and 200 μg/ml. The compound was then retested at a range of concentrations (usually 2-3×steps) bridging their approximate EC50 's, as estimated by the prescreen.
Controls--A solvent control which indicates the base level of topo II-DNA complex formed in the absence of the test compound was included in each test. A control, in which topo II was omitted, was included for each test compound at the highest drug concentration tested.
Reference Agent--A dose response curve with mAMSA at 0.01, 0.08, 0.16, 0.32, 1.0 and 10 μg/ml was included in each test.
The maximal DNA-topo II complex formed is taken as that equal to that formed at the nearly saturating dose of mAMSA (10 μg/ml).

[2] = tested on: P388 murine leukemia cells; test: In vitro cytotoxicity, continuous (48-hour) exposure of P388 cells; type: cell-based; settings: Mus musculus; P388, continuous exposure (48-hour); read-out: in vitro cytotoxicity IC50, cont. exp.
Description: as §1, §2, §3

[3] = conc. achieving 50% of maximal effect of mAMSA, topo II from HeLa cells
[4] = footnote c: bell-shaped dose response curve noted, 50% of maximal effect of mAMSA

T1 sequence (P11388 whole entry): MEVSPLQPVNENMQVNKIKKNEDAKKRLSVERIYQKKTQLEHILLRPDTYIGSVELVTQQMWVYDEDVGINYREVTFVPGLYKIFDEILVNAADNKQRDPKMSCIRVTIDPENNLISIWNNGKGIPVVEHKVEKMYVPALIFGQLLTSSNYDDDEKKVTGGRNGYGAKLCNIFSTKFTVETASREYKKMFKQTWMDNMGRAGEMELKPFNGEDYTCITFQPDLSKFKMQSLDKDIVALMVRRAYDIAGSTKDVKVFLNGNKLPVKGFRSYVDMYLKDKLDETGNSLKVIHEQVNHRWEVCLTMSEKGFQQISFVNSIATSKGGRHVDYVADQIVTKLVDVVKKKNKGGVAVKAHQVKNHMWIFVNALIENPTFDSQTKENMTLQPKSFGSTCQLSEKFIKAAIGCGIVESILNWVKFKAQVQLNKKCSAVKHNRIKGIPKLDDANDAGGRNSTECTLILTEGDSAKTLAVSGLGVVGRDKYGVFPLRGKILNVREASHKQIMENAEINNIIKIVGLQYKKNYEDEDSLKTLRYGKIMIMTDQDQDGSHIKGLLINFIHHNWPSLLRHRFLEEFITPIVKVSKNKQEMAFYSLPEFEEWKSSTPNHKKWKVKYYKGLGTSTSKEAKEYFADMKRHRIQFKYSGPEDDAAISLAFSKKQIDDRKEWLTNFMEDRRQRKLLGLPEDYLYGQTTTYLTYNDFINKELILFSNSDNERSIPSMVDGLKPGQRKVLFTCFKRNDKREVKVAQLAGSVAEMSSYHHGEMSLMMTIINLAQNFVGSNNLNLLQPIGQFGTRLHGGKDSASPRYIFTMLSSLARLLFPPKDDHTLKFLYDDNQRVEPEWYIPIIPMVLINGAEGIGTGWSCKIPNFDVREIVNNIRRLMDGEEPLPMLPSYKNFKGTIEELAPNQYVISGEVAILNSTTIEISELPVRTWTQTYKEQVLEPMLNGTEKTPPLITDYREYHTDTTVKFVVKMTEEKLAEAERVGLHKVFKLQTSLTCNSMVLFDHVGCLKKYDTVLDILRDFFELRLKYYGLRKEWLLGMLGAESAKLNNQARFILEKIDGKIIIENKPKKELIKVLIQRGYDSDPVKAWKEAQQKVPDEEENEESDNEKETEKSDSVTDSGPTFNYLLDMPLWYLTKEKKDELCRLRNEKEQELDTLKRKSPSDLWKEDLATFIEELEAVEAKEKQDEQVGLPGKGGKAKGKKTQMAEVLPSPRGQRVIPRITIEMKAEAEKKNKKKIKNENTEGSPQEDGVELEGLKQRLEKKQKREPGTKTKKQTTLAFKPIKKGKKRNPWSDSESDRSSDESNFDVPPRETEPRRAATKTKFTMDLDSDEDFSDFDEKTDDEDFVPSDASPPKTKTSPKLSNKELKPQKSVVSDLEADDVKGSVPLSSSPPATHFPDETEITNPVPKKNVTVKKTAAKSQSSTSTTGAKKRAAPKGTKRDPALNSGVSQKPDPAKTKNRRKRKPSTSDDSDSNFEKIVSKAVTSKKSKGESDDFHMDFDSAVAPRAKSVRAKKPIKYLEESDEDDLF

Row | SMILES | EC50 (human topoisomerase II; [3]) [µM] | EC50 (human topoisomerase II) [µM] | EC50 (human topoisomerase II; [4]) [µM] | IC50 [1] [µM] | IC50 [2] [µM]
1 | Cc1cc(-c2c(F)cc3c4nn(CC(F)(F)F)c(=O)c-4cn(C4CC4)c3c2F)cc(C)n1 [Example 2] | 6.8 | – | – | – | 1.4
2 | Cc1cc(-c2c(F)cc3c4nn(C(C)(C)C)c(=O)c-4cn(C4CC4)c3c2F)cc(C)n1 [Example 8] | 6.9 | – | – | – | 3.5
3 | Cc1cc(-c2c(F)cc3c4nn(CCO)c(=O)c-4cn(C4CC4)c3c2F)cc(C)n1 [Example 10] | 6.4 | – | – | – | 1.4
4 | COC(Cn1nc2c3cc(F)c(-c4cc(C)nc(C)c4)c(F)c3n(C3CC3)cc-2c1=O)OC [Example 12] | 23 | – | – | – | –
5 | Cc1cc(-c2c(F)cc3c4nn(CCC#N)c(=O)c-4cn(C4CC4)c3c2F)cc(C)n1 [Example 13] | 6.7 | – | – | – | 1.4
6 | CCN(CC)CCn1nc2c3cc(F)c(-c4cc(C)nc(C)c4)c(F)c3n(C3CC3)cc-2c1=O [Example 15] | – | 93 | – | 0.45 | –
7 | Cc1cc(-c2c(F)cc3c4nn(CCN5CCCCC5)c(=O)c-4cn(C4CC4)c3c2F)cc(C)n1 [Example 19] | – | 210 | – | 0.44 | –
8 | Cc1ccc(-n2nc3c4cc(F)c(-c5cc(C)nc(C)c5)c(F)c4n(C4CC4)cc-3c2=O)cc1 [Example 24] | 8.9 | – | – | – | 4.9
9 | Cc1cc(-c2c(F)cc3c4nn(-c5ccncc5)c(=O)c-4cn(C4CC4)c3c2F)cc(C)n1 [Example 30] | – | – | 8 | – | 1.2
10 | COc1cc(Cn2nc3c4cc(F)c(-c5cc(C)nc(C)c5)c(F)c4n(C4CC4)cc-3c2=O)cc(OC)c1OC [Example 36] | 6.4 | – | – | – | 1.2
11 | COc1ccccc1CCn1nc2c3cc(F)c(-c4cc(C)nc(C)c4)c(F)c3n(C3CC3)cc-2c1=O [Example 38] | 11 | – | – | – | –
12 | Cc1cc(-c2c(F)cc3c4nn(CCc5ccccc5O)c(=O)c-4cn(C4CC4)c3c2F)cc(C)n1 [Example 39] | – | – | 9.6 | – | –
13 | CC(=O)N[C@H]1CC[C@@H](n2nc3c4cc(F)c(-c5cc(C)nc(C)c5)c(F)c4n(C4CC4)cc-3c2=O)CC1 [Example 52a] | 7.4 | – | – | 1.3 | –
14 | CC(=O)N[C@H]1CC[C@H](n2nc3c4cc(F)c(-c5cc(C)nc(C)c5)c(F)c4n(C4CC4)cc-3c2=O)CC1 [Example 52b] | 9.8 | – | – | 1.2 | –
15 | Cc1cc(-c2c(F)cc3c4nn(CC(=O)O)c(=O)c-4cn(C4CC4)c3c2F)cc(C)n1 [Example 53, 2-[5-Cyclopropyl-6,8-difluoro-2,5-dihydro-7-(2,6-dimethyl-4-pyridinyl)-3-oxo-3H-pyrazolo[4,3-c]quinolinyl]acetic acid] | 10 | – | – | – | 18

The remaining molecules from weak to strong by EC50 (human topoisomerase II; [3]), led by results:

Row | EC50 (human topoisomerase II; [3]) [µM] | EC50 (human topoisomerase II) [µM] | EC50 (human topoisomerase II; [4]) [µM] | SMILES | IC50 [1] [µM] | IC50 [2] [µM]
16 | 6.3 | – | – | CO[C@@H]1CCCC[C@@H]1n1nc2c3cc(F)c(-c4cc(C)nc(C)c4)c(F)c3n(C3CC3)cc-2c1=O (relative stereo) [Example 45] | 0.57 | –
17 | 6.1 | – | – | CCOC(=O)Cn1nc2c3cc(F)c(-c4cc(C)nc(C)c4)c(F)c3n(C3CC3)cc-2c1=O [Example 9] | – | 0.15
18 | 5.9 | – | – | Cc1cc(-c2c(F)cc3c4nn(C)c(=O)c-4cn(C4CC4)c3c2F)cc(C)n1 [Example 7] | – | 0.51
19 | 5.1 | – | – | COc1ccccc1Cn1nc2c3cc(F)c(-c4cc(C)nc(C)c4)c(F)c3n(C3CC3)cc-2c1=O [Example 32] | – | 1.2
20 | 5 | – | – | Cc1cc(-c2c(F)cc3c4nn(C(C)C)c(=O)c-4cn(C4CC4)c3c2F)cc(C)n1 [Example 3, 5-Cyclopropyl-6,8-difluoro-7-(2,6-dimethyl-4-pyridinyl)-2,5-dihydro-2-(2-propyl) -3H-pyrazolo[4,3-c]quinolin-3-one] | – | 0.53
21 | 5 | – | – | COc1ccccc1-n1nc2c3cc(F)c(-c4cc(C)nc(C)c4)c(F)c3n(C3CC3)cc-2c1=O [Example 26] | – | 0.34
22 | 5 | – | – | Cc1cc(-c2c(F)cc3c4nn(CCc5ccccc5)c(=O)c-4cn(C4CC4)c3c2F)cc(C)n1 [Example 37] | – | 2.2
23 | 4.9 | – | – | Cc1cc(-c2c(F)cc3c4nn(-c5ccc(O)cc5)c(=O)c-4cn(C4CC4)c3c2F)cc(C)n1 [Example 27] | – | 2.6
24 | 4.5 | – | – | Cc1cc(-c2c(F)cc3c4nn(C5CCC(c6ccccc6)CC5)c(=O)c-4cn(C4CC4)c3c2F)cc(C)n1 (centres unmarked) [Example 48] | 8.4 | –
25 | 4.2 | – | – | Cc1cc(-c2c(F)cc3c4nn(CCCCO)c(=O)c-4cn(C4CC4)c3c2F)cc(C)n1 [Example 11] | – | 0.88
26 | 3.8 | – | – | Cc1cc(-c2c(F)cc3c4nn(Cc5ccccc5O)c(=O)c-4cn(C4CC4)c3c2F)cc(C)n1 [Example 33] | – | 1.4
27 | 3.7 | – | – | Cc1cc(-c2c(F)cc3c4nn(Cc5ccccc5)c(=O)c-4cn(C4CC4)c3c2F)cc(C)n1 [Example 31] | – | 0.14
28 | 3.7 | – | – | Cc1cc(-c2c(F)cc3c4nn(C5CCc6ccccc6C5)c(=O)c-4cn(C4CC4)c3c2F)cc(C)n1 (centres unmarked) [Example 44] | – | 1.5
29 | 3.4 | – | – | Cc1cc(-c2c(F)cc3c4nn(-c5c(F)c(F)c(F)c(F)c5F)c(=O)c-4cn(C4CC4)c3c2F)cc(C)n1 [Example 25] | – | 2.2
30 | 3.2 | – | – | COc1ccc(Cn2nc3c4cc(F)c(-c5cc(C)nc(C)c5)c(F)c4n(C4CC4)cc-3c2=O)cc1 [Example 34] | – | 0.44
31 | 3.1 | – | – | Cc1cc(-c2c(F)cc3c4nn(C5CCC(C)CC5)c(=O)c-4cn(C4CC4)c3c2F)cc(C)n1 (centres unmarked) [Example 47] | 1.4 | –
32 | 2.9 | – | – | CCCCn1nc2c3cc(F)c(-c4cc(C)nc(C)c4)c(F)c3n(C3CC3)cc-2c1=O [Example 4, 2-(1-Butyl)-5-cyclopropyl-6,8-difluoro-2,5-dihydro-7-(2,6-dimethyl-4-pyridinyl) -3H-pyrazolo[4,3-c]quinolin-3-one] | – | 1.5
33 | 2.9 | – | – | Cc1cc(-c2c(F)cc3c4nn(-c5cccc6ccccc56)c(=O)c-4cn(C4CC4)c3c2F)cc(C)n1 [Example 28] | – | 0.32
34 | 2.8 | – | – | Cc1cc(-c2c(F)cc3c4nn(-c5ccccn5)c(=O)c-4cn(C4CC4)c3c2F)cc(C)n1 [Example 29] | – | 0.74
35 | 1.5 | – | – | Cc1cc(-c2c(F)cc3c4nn(Cc5ccc(O)cc5)c(=O)c-4cn(C4CC4)c3c2F)cc(C)n1 [Example 35] | – | 0.25
36 | 1.2 | – | – | Cc1cc(-c2c(F)cc3c4nn(-c5ccccc5O)c(=O)c-4cn(C4CC4)c3c2F)cc(C)n1 [Example 5, 5-Cyclopropyl-6,8-difluoro-2,5-dihydro-2-(2-hydroxyphenyl)-7-(2,6-dimethyl-4-pyridinyl) -3H-pyrazolo[4,3-c]quinolin-3-one] | – | 0.15
37 | 0.8 | – | – | Cc1cc(-c2c(F)cc3c4nn([C@H]5CC[C@@H](NC=O)CC5)c(=O)c-4cn(C4CC4)c3c2F)cc(C)n1 [Example 57, 2-(cis-4-formamidocyclohexyl)-5-cyclopropyl-6,8-difluoro-2,5-dihydro-7-(2,6-dimethyl-4-pyridinyl)-3H-pyrazolo[4,3-c]quinolin-3-one] | 5.1 | –
